The values below come from a melting point compilation (Tetko et al.; mined from patent text by program, amines drawn as free bases though some values may be those of a salt).

The structures appear in SMILES notation. Some results are limits rather than exact numbers.

The term melting point denotes the temperature, or range, at which the solid turns liquid. As to `CNC(=O)c1cc(F)c(Cl)cc1F`, the melting point amounted to 128 °C.

Compound `Cc1cc2ccc(Cl)c(C)c2nc1-n1cncn1` gave a melting point of 147 to 148 °C. The value for `O=C(NCc1ccc(Cl)cc1)c1cnc2ccc(OCCO)cc2c1O` was 246 to 248 °C; that for `COc1ccc2cc(C(=O)O)oc2c1` was 208 to 211 °C; that for `COc1ccc(OCCCN2CCN(c3ccc(Cl)nn3)CC2)cc1` was 123 °C. The value for `C=C(C)c1ccc(CNC(=O)N2CCN(c3ncnc4cc(OC)c(OC)cc34)CC2)cc1` was 123 to 124 °C; that for `O=C1NCC(CCc2ccccc2Br)O1` (centres undefined) was 93.5 to 94.5 °C; that for `CCCn1nc(SC2CCC(CC(=O)O)CC2)c(C(=O)O)c1Cc1cc2c(cc1Cl)OCO2` (centres undefined) was 178 °C. For `COCCc1nc2c(N)nc3cc(-c4cncc(CO)c4)ccc3c2n1CC(C)(C)O` the value was 210 to 211 °C. In the case of `CC(C)CS(=O)c1ccc(N)c([N+](=O)[O-])c1` (centres undefined), the melting point lay in the range of 111 to 118 °C. The value for `Cn1cnc2nc(C=Cc3ccc(Cl)cc3)nn2c1=S` was above 300 °C; that for `Nc1ccc(Cl)cc1NC1CCN(Cc2ccccc2)CC1` was 108 °C.

`N#CC(N)=C(C#N)N=Cc1c(Cl)cc(C(F)(F)F)cc1Cl` gave a melting point of 218 to 219 °C.

Compound `Nc1c(F)c(N2Cc3cccc(Cl)c3C2)c(F)c2c1c(=O)c(C(=O)O)cn2C1CC1` showed a melting point above 280 °C.

For `CCOC(=O)C(=O)N(CCBr)N=Cc1ccccc1`, the melting point lay within 56 to 57 °C. `O=S1(=O)c2cccc3cccc(c23)N1CCCCN1CC=C(c2ccc(Cl)cc2)CC1` showed a melting point of 12 °C. The value for `CC(C)CN1CCCC1CNC(=O)c1cc(S(N)(=O)=O)cc2c1OC(C)C2` (centres undefined) was 182 to 184 °C; that for `CC(=Cc1ccc(-c2noc3cc(Cl)ccc23)cc1)[N+](=O)[O-]` was 160 to 162 °C. For `COc1cc(/C=C/C(=O)CC(=O)C2(C)CC2)ccc1O` the value was 78 to 80 °C; for `CC(=O)Oc1ccc(Cn2ccnc2SC(C)=O)cc1F`, 78 to 80 °C. For `COc1ccccc1Oc1c(Cl)ncnc1Cl` the value was 79 to 80 °C; for `c1ccc(CC(Cc2ccccc2)(c2nnn[nH]2)c2nnn[nH]2)cc1`, 228 to 230 °C.

`COc1cc(CO)ccc1OCc1nc(-c2cccnc2)oc1C` showed a melting point of 117 to 118 °C. In turn, `CCN1CCN(C)C[C@@H](NC(=O)c2cc(Br)c(NC)nc2OC)C1` displayed a melting point of 52 to 55 °C.

Compound `Cc1[nH]c(=O)c2c(ccc3nc(Nc4c(Cl)cccc4Cl)n(C)c32)c1CCN1CCOCC1` came in with a melting point of 285 to 290 °C.

`N#Cc1cnc2cc(F)ccc2c1Cl` gave a melting point of 163 to 165 °C. For `CC(C)=CCOC(C)C1CCC2=C3C=CC4C(C)(C)C(OC(=O)CCC(=O)O)CCC4(C)C3CCC21C` (centres undefined) the value was 96 to 99 °C. The value for `CC1(C)CC(=O)NC2=C1c1ccc(Cl)cc1CC2` was 213 °C; that for `O=C(O)c1cc(-c2ccc(C(F)(F)F)cc2)nc(-c2ccc(C(F)(F)F)cc2)c1` was 289 to 290 °C; that for `CCCCCCCCCCC1CCCC1C(=O)Nc1c(OC)ccc2ncccc12` (centres undefined) was 57 to 58 °C. Take `C[Si](C)(C)N1C(=O)c2ccccc2S1(=O)=O`: the melting point was 90 to 92 °C.

Regarding `CCc1ccc(Nc2c(-c3nnc(CC)o3)ccc(F)c2F)c(F)c1`, the melting point lay within 82 to 83 °C. Take `CC(C)(C)OC(=O)N[C@H](CC(=O)OCc1ccccc1)C(=O)N[C@H](COC(=O)OCc1ccccc1)c1ccccc1`: the melting point was in the range of 105 to 106 °C.

Turning to `COc1ccc(C(=O)Cc2c(Cl)cncc2Cl)c2c1OC(c1ccccc1)(c1ccccc1)O2`, the melting point fell in the range of 156 to 157 °C. The value for `O=C(O)COc1ccc(OCCCCc2ccccc2)cc1` was 116 to 117 °C; that for `OC1CSC(Oc2cccc(-c3ccc(F)cn3)c2)C(O)C1O` (centres undefined) was 168 to 201 °C; that for `CS(=O)(=O)Nc1ccc(C23CC2C(=O)NC3=O)cc1` (centres undefined) was 208 to 209 °C. The value for `CC(C)(C)c1n[nH]c(SCCNC(=O)Nc2ccc(C(F)(F)F)cc2)n1` was 238 to 240 °C; that for `O=C(O)C1=Cc2cc(-c3ccc(F)cc3)ccc2OC1C(F)(F)F` (centres undefined) was 207 to 210 °C; that for `COc1ccc(CN2CCc3nc(-c4ccccc4)c4c(c3C2)CO[C@@H](C)C4)cc1` was 110 °C. The value for `CCCC1=C(C(=O)OCC)C(c2cc(OC)ccc2OC)c2c[nH]nc2N1` (centres undefined) was 169 to 170 °C; that for `CCc1nc(-c2ccccc2)c(NC(=O)Nc2ccccc2)s1` was 171 to 173 °C; that for `Cc1nsc2ccc([N+](=O)[O-])cc12` was 124 to 125 °C. `Cc1c(C)c2c(c(C)c1NC(=O)CCCO)C(c1ccc(C(C)C)cc1)CO2` (centres undefined) registered a melting point of 156 to 157 °C.

`OC(CCN1CC=C(c2ccccc2)CC1)c1cccc2ccccc12` (centres undefined) registered a melting point of 93 to 94 °C. For `CC(C)c1nc(COCc2ccccc2)n(C(C)F)c1Sc1cc(Cl)cc(Cl)c1` (centres undefined) the value was 131 to 132 °C; for `C#CCOCc1nnc(Nc2ccc3c(c2)ncn3-c2ccccc2)c2ccccc12`, 89 to 91 °C.

In the case of `c1cncc(-c2ccnc3nc(N4CCNCC4)nn23)c1`, the melting point lay in the range of 156 to 158 °C. The value for `CCCc1c[nH]c(=O)[nH]c1=O` was 286 to 287 °C; that for `CN1C(=O)CN=C(c2ccccc2F)c2c1cc(Cl)c(N)c2Cl` was 234 °C.

In turn, `CCn1cc(-c2cnccn2)ccc1=O` showed a melting point of 120 to 121 °C. For `CCOC(=O)c1[nH]cc2c1NC1=C(C(=O)CCC1)C2c1ccc(Sc2nc3cc(F)c(F)cc3[nH]2)o1` (centres undefined) the value was 160 to 170 °C; for `CCCCC[C@H](O)c1ccc(Br)cc1`, 70 to 71 °C. The value for `c1cncc(Nc2nnc(Cc3ccncc3)c3ccccc23)c1` was 137 to 139 °C. For `Nc1ccc(-c2cc3[nH]c4ccc(O)cc4c3c3c2C(=O)NC3=O)cc1` the value was 256 to 258 °C; for `CCCCc1cc(C(=O)O)c(=O)n(CCCC)c1C`, 106 to 108 °C.

In the case of `C=CC[C@H](CC(=O)OC(C)(C)C)C(=O)N[C@H](C(=O)N[C@H](C)c1ccccc1)C(C)(C)C`, the melting point fell in the range of 123 to 126 °C. The compound `O=C1C(=O)c2ccccc2C2=C1SCC1(CCC(c3ccccc3)CC1)O2` (centres undefined) yielded a melting point of 183 to 187 °C. `CC(C)c1cc(C(=O)Nc2ccc(C(=O)O)cc2)[nH]c1C(C)C` gave a melting point of 230 °C. For `CC(NC(=O)c1sc2ccc(C(F)(F)F)cc2c1O)=C(c1ccccc1)c1ccccc1` the value was 155 to 160 °C; for `CCCc1c(COc2ccc(-c3nnn(CCCN(C)C)n3)cc2)ccc(C(C)=O)c1O`, 89 to 91 °C; for `COc1ccc(-c2nc3nccnc3[nH]2)c(N(C)C)c1`, 279 to 280 °C.

`O=C(Nc1ccc(-n2nc(C(F)(F)F)cc2Cl)cc1)c1ccncc1F` showed a melting point of 128 to 129 °C. For `CC(C)(C)OC(=O)Nc1cc(N2CCOC2=O)c(-c2ccc(F)cc2)cc1[N+](=O)[O-]` the value was 201 °C; for `Cc1noc(CCCCCCCOc2ccc(C3=NCCO3)cc2Cl)c1CO`, 53 to 54 °C; for `CC(C)(C)OC(=O)N1CCC(OCc2ccccc2)C1CC(O)Cn1cnc2ccncc2c1=O` (centres undefined), 221 °C.

On to `CC(=O)Oc1cnccc1CCCOc1cccnc1Oc1cccc(Br)c1`, for which the melting point is 110 to 112 °C.

Consider `CN(Cc1ccc(F)cc1)C(=O)c1cnc2c3c(ccc2c1)C(=O)C(C(=O)O)C=N3` (centres undefined), for which the melting point lay in the range of 245 to 246 °C. For `O=C(O)c1ccc(C(c2cc(F)ccc2F)S(=O)(=O)c2ccc(Cl)cc2)nc1` (centres undefined) the value was above 230 °C. For `CCN(CC)CCNC(=O)c1cccc2c(=O)cc(-c3ccc([N+](=O)[O-])cc3)oc12` the value was 207 to 209 °C; for `O=C(OCc1ccccn1)c1cccc(-n2cnc3cc(-c4ccccc4)ccc32)c1`, 149 to 150 °C.

`COc1ccc(-c2csc(Nc3cccc(C)n3)n2)cc1OC` came in with a melting point of 264 to 266 °C. For `O=c1ccc2nc3ccccc3sc-2c1` the value was 157 to 159 °C; for `CN(CC(=O)OC(C)(C)C)c1cncc(-c2nc(=O)c3ccccc3s2)n1`, 189 to 190 °C. The value for `CNc1nc2ccccc2n(-c2ccc(Cl)cc2)c1=O` was 217 to 220 °C. The value for `COC(=O)c1cc(C(=O)NNC(=O)c2ccccn2)c2cc(Cc3ccc(F)cc3)cnc2c1O` was 164 to 166 °C; that for `Cc1ccc2sc(S(=O)(=O)c3cn[nH]c(=O)c3)cc2c1` was 240 to 242 °C.

For `CCOC(=O)/C=C/c1cnc2c(c1)C(=O)N(C)c1ccc(Cl)nc1N2CC`, the melting point is 192 to 193 °C.

The compound `Cc1ccc(C(O[Si](C)(C)C(C)(C)C)C(=O)N2CCOCC2)cc1` (centres undefined) came in with a melting point of 64 to 65 °C. The value for `CC(C)C(c1ccc2[nH]c(=O)c(C(=O)O)nc2c1)n1ccnc1` (centres undefined) was 238 °C. For `CC1Cc2ccccc2C(C(S)(C#N)C(=O)O)=N1` (centres undefined) the value was 159 to 160 °C; for `COc1ccc2cc(C(C)C(=O)ON(C(N)=O)C(C)c3ccoc3)ccc2c1` (centres undefined), 128 to 134 °C; for `O=c1c2c(n(-c3ccccc3)c3ncccc13)SCC2`, 260 to 261 °C. With `O=C(Nc1c[nH]nc1C(=O)NCCSc1ccccc1)c1ccccn1`, the melting point was 180 to 181 °C. The value for `CNC(=O)C(Cc1ccc(OC)cc1)NC(=O)C(CC(C)C)C(CC(=O)O)SC(C)=O` (centres undefined) was 92 to 95 °C. `COc1cccc(C(=O)Nc2ccc(-n3nc(C(F)(F)F)cc3C(F)(F)F)cc2)c1` came in with a melting point of 169 to 172 °C. For `O=C(NCc1cc(Br)cc2[nH]c(=O)c(=O)[nH]c12)C(O)c1ccccc1` (centres undefined) the value was above 280 °C. The value for `CCOC(=O)CC(=O)c1cc(I)ccc1F` was 54 to 56 °C; that for `CC(C)Cn1cnc2c(N)nc3c(c21)CCCN3` was 231 to 233 °C.
